Data reported in patent publication US20090074815A1, “Immunomodulator Compounds as Vaccine Enhancers” (SCICLONE PHARMACEUTICALS, INC., priority 2005, published 2009).

Key:
[1] = system: thymic cells; assay: Expression of T-cell subpopulation and activation markers (CD69, CD25) on thymic cells, flow cytometry; type: in vivo, mice; conditions: for CD25-positive cells, % / CD69-positive, %: thymic cells cultured in vitro 48 hours
From the text: Materials and Methods: Eighteen (18) to twenty (20) gram (g) male mice, purchased from the Rappolovo Animal Facility, Russia, were used in the studies described below. C57BL/6 (B6) mice were used to evaluate the effect of SCV-07 in non-immunized mice. CBAxC57BL/6 (F1) mice were used for studies of the effects of SCV-07 on the antigen-specific immune response. Mice were kept under the standard animal facility conditions and were provided with a standard diet and water ad libitum. Each treatment group included 4-5 mice. […] Analysis by Flow Cytometry: […] The expression of T-cell subpopulation markers (CD3, CD4, and CD8) and activation markers (CD69 and CD25) on thymic cells and splenocytes was studied ex vivo 72 hours after the last treatment with SCV-07. […] The expression of the CD69 marker increased after oral administration of SCV-07 tablets at doses of 0.1 and 1.0 μg/kg of body mass as well as after i/p administration at a dose of 1.0 μg/kg.

[2] = system: thymic cells; assay: ConA-induced proliferation of thymic cells (3H-thymidine uptake); type: in vivo, mice
From the text: Materials and Methods: Eighteen (18) to twenty (20) gram (g) male mice, purchased from the Rappolovo Animal Facility, Russia, were used in the studies described below. C57BL/6 (B6) mice were used to evaluate the effect of SCV-07 in non-immunized mice. CBAxC57BL/6 (F1) mice were used for studies of the effects of SCV-07 on the antigen-specific immune response. Mice were kept under the standard animal facility conditions and were provided with a standard diet and water ad libitum. Each treatment group included 4-5 mice. […] A suspension containing filling agents alone, which corresponded to the maximum amount of filling agents in the doses of SCV-07 administered to experimental animals, was used a control. […] Assessment of Mitogen- and Antigen-Induced Proliferation: […] Antigen-specific proliferation was studied by stimulating thymocytes and splenoctyes in vitro with different concentrations of OvA for 96 h. Twenty (20) to twenty-four (24) hours prior to completion of incubation, 3H-labeled thymidine (5 μCi/ml) was added to the cells. The cells were then transferred to fiberglass filters with a Titertek® semi-automatic cell harvester. Thymidine uptake was measured using a RackBeta 1217 (Wallac) liquid scintillation β-counter. For quantitative analysis of proliferation, the stimulation index (SI) was calculated as a ratio of the intensity of label inclusion in the stimulated cells to that in non-stimulated cells.

[3] = system: IL-2 production by ConA-stimulated splenocytes; assay: IL-2 production by ConA-stimulated splenocytes; type: in vivo, mice
[4] = system: leukocytes and lymphocytes in peripheral blood; assay: Concentration of leukocytes and lymphocytes in peripheral blood before and after vaccination; type: in vivo, human; conditions: After vaccination
[5] = thymic cells, ConA 1 μg/ml, 0.01 μg/kg Tablet, per os
[6] = thymic cells, ConA 1 μg/ml, 0.01 μg/kg per os
[7] = thymic cells, ConA 1 μg/ml, 0.1 μg/kg Tablet, per os
[8] = thymic cells, ConA 1 μg/ml, 0.1 μg/kg i/p, Table 4
[9] = thymic cells, ConA 1 μg/ml, 0.1 μg/kg i/p, Table 5
[10] = thymic cells, ConA 1 μg/ml, 0.1 μg/kg per os
[11] = thymic cells, ConA 1 μg/ml, 1.0 μg/kg Tablet, per os
[12] = thymic cells, ConA 1 μg/ml, 1.0 μg/kg i/p, Table 4
[13] = thymic cells, ConA 1 μg/ml, 1.0 μg/kg i/p, Table 5
[14] = thymic cells, ConA 1 μg/ml, 1.0 μg/kg per os
[15] = thymic cells, ConA 1 μg/ml, 10.0 μg/kg Tablet, per os
[16] = thymic cells, ConA 1 μg/ml, 10.0 μg/kg per os
[17] = thymic cells, ConA 1 μg/ml, 100.0 μg/kg per os
[18] = Patients of group 2 (SCV-07 + vaccine)

## N[C@H](CCC(=O)N[C@@H](Cc1c[nH]c2ccccc12)C(=O)O)C(=O)O [SCV-07, γ-D-glutamyl-L-tryptophan]
[1]; thymic cells and splenocytes ex vivo 72 hours after the last treatment, i/p or per os, data not shown
  subpopulation composition of T-cells and expression of their activation markers: No significant differences
[1]; 0.1 μg/kg Tablet, per os
  CD25-positive cells, %: 0.7%
  CD69-positive, %: 3.35%
[1]; 0.1 μg/kg i/p
  CD25-positive cells, %: 0.30%
  CD69-positive, %: 2.03%
[1]; 1.0 μg/kg Tablet, per os
  CD25-positive cells, %: 0.79%
  CD69-positive, %: 4.61%
[1]; 1.0 μg/kg i/p
  CD25-positive cells, %: 1.72%
  CD69-positive, %: 7.86%
[1]; 10.0 μg/kg Tablet, per os
  CD25-positive cells, %: 0.71%
  CD69-positive, %: 2.24%
[2]; crushed tablet per os, ConA 1 μg/ml
  minimal dose of SCV-07 given as a crushed tablet which caused significant enhancement of proliferation: 0.1 µg/kg
[2]; oral administration, the same as for i/p
  minimal SCV-07 dose which caused significant increase in proliferation of thymic cells: 0.1 µg/kg
[2]; thymic cells, 0.01 μg/kg Tablet, per os
  Spontaneous proliferation (cpm) M ± SD: 308 ± 104 cpm
[2]; thymic cells, 0.01 μg/kg per os
  Spontaneous proliferation (cpm) M ± SD: 238 ± 64 cpm
[2]; thymic cells, 0.1 μg/kg Tablet, per os
  Spontaneous proliferation (cpm) M ± SD: 395 ± 136 cpm
[2]; thymic cells, 0.1 μg/kg i/p, Table 4
  Spontaneous proliferation (cpm) M ± SD: 268 ± 114 cpm
[2]; thymic cells, 0.1 μg/kg i/p, Table 5
  Spontaneous proliferation (cpm) M ± SD: 251 ± 36 cpm
[2]; thymic cells, 0.1 μg/kg per os
  Spontaneous proliferation (cpm) M ± SD: 250 ± 75 cpm
[2]; thymic cells, 1.0 μg/kg Tablet, per os
  Spontaneous proliferation (cpm) M ± SD: 355 ± 62 cpm
[2]; thymic cells, 1.0 μg/kg i/p, Table 4
  Spontaneous proliferation (cpm) M ± SD: 342 ± 83 cpm
[2]; thymic cells, 1.0 μg/kg i/p, Table 5
  Spontaneous proliferation (cpm) M ± SD: 555 ± 20 cpm
[2]; thymic cells, 1.0 μg/kg per os
  Spontaneous proliferation (cpm) M ± SD: 198 ± 44 cpm
[2]; thymic cells, 10.0 μg/kg Tablet, per os
  Spontaneous proliferation (cpm) M ± SD: 317 ± 77 cpm
[2]; thymic cells, 10.0 μg/kg per os
  Spontaneous proliferation (cpm) M ± SD: 246 ± 51 cpm
[2]; thymic cells, 100.0 μg/kg per os
  Spontaneous proliferation (cpm) M ± SD: 272 ± 98 cpm
[2]; [5]
  Induced proliferation (cpm) M ± SD: 3144 ± 582 cpm
  Stimulation index: 10.2
[2]; [6]
  Induced proliferation (cpm) M ± SD: 6698 ± 1465 cpm
  Stimulation index: 28.1
[2]; [7]
  Induced proliferation (cpm) M ± SD: 9900 ± 2021 cpm
  Stimulation index: 25.1
[2]; [8]
  Induced proliferation (cpm) M ± SD: 14261 ± 1400 cpm
  Stimulation index: 53.3
[2]; [9]
  Induced proliferation (cpm) M ± SD: 9897 ± 678 cpm
  Stimulation index: 39.4
[2]; [10]
  Induced proliferation (cpm) M ± SD: 9754 ± 1633 cpm
  Stimulation index: 39.1
[2]; [11]
  Induced proliferation (cpm) M ± SD: 10248 ± 1913 cpm
  Stimulation index: 28.9
[2]; [12]
  Induced proliferation (cpm) M ± SD: 20995 ± 6425 cpm
  Stimulation index: 61.4
[2]; [13]
  Induced proliferation (cpm) M ± SD: 33418 ± 3490 cpm
  Stimulation index: 49.7
[2]; [14]
  Induced proliferation (cpm) M ± SD: 20658 ± 5873 cpm
  Stimulation index: 104.6
[2]; [15]
  Induced proliferation (cpm) M ± SD: 7675 ± 1456 cpm
  Stimulation index: 24.2
[2]; [16]
  Induced proliferation (cpm) M ± SD: 13905 ± 2443 cpm
  Stimulation index: 56.6
[2]; [17]
  Induced proliferation (cpm) M ± SD: 27589 ± 1331 cpm
  Stimulation index: 101.4
[2]; thymic cells, per os or i/p, data not shown
  proliferation of cells stimulated by the optimal dose of ConA: did not significantly change
[3]; ConA 1 μg/ml, 0.01 μg/kg per os
  IL-2 production (U/ml), M ± SD: 10.4 ± 1.1 U/ml
[3]; ConA 1 μg/ml, 0.1 μg/kg i/p
  IL-2 production (U/ml), M ± SD: 16.1 ± 0.8 U/ml
[3]; ConA 1 μg/ml, 0.1 μg/kg per os
  IL-2 production (U/ml), M ± SD: 7.5 ± 0.1 U/ml
[3]; ConA 1 μg/ml, 1.0 μg/kg i/p
  IL-2 production (U/ml), M ± SD: 15.6 ± 0.3 U/ml
[3]; ConA 1 μg/ml, 1.0 μg/kg per os
  IL-2 production (U/ml), M ± SD: 10.0 ± 0.4 U/ml
[3]; ConA 1 μg/ml, 10.0 μg/kg per os
  IL-2 production (U/ml), M ± SD: 9.1 ± 1.3 U/ml
[3]; ConA 1 μg/ml, 100.0 μg/kg per os
  IL-2 production (U/ml), M ± SD: 14.9 ± 2.4 U/ml
[3]; ConA 2 μg/ml, 0.01 μg/kg per os
  IL-2 production (U/ml), M ± SD: 66.9 ± 12.6 U/ml
[3]; ConA 2 μg/ml, 0.1 μg/kg i/p
  IL-2 production (U/ml), M ± SD: 93.4 ± 28.3 U/ml
[3]; ConA 2 μg/ml, 0.1 μg/kg per os
  IL-2 production (U/ml), M ± SD: 85.8 ± 6.6 U/ml
[3]; ConA 2 μg/ml, 1.0 μg/kg i/p
  IL-2 production (U/ml), M ± SD: 99.3 ± 6.1 U/ml
[3]; ConA 2 μg/ml, 1.0 μg/kg per os
  IL-2 production (U/ml), M ± SD: 60.8 ± 1.2 U/ml
[3]; ConA 2 μg/ml, 10.0 μg/kg per os
  IL-2 production (U/ml), M ± SD: 56.4 ± 2.1 U/ml
[3]; ConA 2 μg/ml, 100.0 μg/kg per os
  IL-2 production (U/ml), M ± SD: 79.3 ± 16.3 U/ml
[3]; Spontaneous, 0.01 μg/kg per os
  IL-2 production (U/ml), M ± SD: 0.0 ± 0.0 U/ml
[3]; Spontaneous, 0.1 μg/kg i/p
  IL-2 production (U/ml), M ± SD: 2.0 ± 0.3 U/ml
[3]; Spontaneous, 0.1 μg/kg per os
  IL-2 production (U/ml), M ± SD: 0.0 ± 0.0 U/ml
[3]; Spontaneous, 1.0 μg/kg i/p
  IL-2 production (U/ml), M ± SD: 2.7 ± 0.3 U/ml
[3]; Spontaneous, 1.0 μg/kg per os
  IL-2 production (U/ml), M ± SD: 0.3 ± 0.5 U/ml
[3]; Spontaneous, 10.0 μg/kg per os
  IL-2 production (U/ml), M ± SD: 0.0 ± 0.0 U/ml
[3]; Spontaneous, 100.0 μg/kg per os
  IL-2 production (U/ml), M ± SD: 0.3 ± 0.5 U/ml
[4]; Healthy subjects (Group III)
  Leukocytes × 10^9/l: 6.04 ± 0.31 10^9/l
  Lymphocytes %: 19.05 ± 1.13%
  Lymphocytes × 10^9/l: 1.19 ± 0.11 10^9/l
[4]; [18]
  Lymphocytes %: 27.81 ± 2.04%
  Lymphocytes × 10^9/l: 1.608 ± 0.096 10^9/l
[4]; Patients of group 2 (infectious syndrome, SCV-07 1 mg i.m. + hepatitis B vaccine)
  Leukocytes × 10^9/l: 5.938 ± 0.351 10^9/l
